Several values for one entry are separate records, joined by “and”; a condition that tells them apart may be missing. Equal values may be shown once. Bridge positions count the residues as written; N and C are the ends. Square brackets hold non-standard residues; d marks the D form. Peptide text beside a SMILES is read from it. * marks the point of attachment. ξ: configuration not given here. NMeI = CC[CH](C)[CH](NC)C(=O)O; ξNMe2Val = CC(C)C(C(=O)*)N(C)C; NMeT = CN[CH](C(=O)O)[CH](C)O; NMeL = CN[CH](CC(C)C)C(=O)O; Hiv = CC(C)[CH](O)C(=O)O; NMeS = CN[CH](CO)C(=O)O; NMeA = CN[CH](C)C(=O)O
Columns and labels:
[1] = tested on: NCI-H460 human lung tumor cells; assay: MTT cytotoxicity, NCI-H460 cells; type: cell-based; conditions: 48 hours, read-out: LC50 (the source's name)
Procedure: (§1) Cytotoxicity was measured in NCI-H460 human lung tumor cells and neuro-2a mouse neuroblastoma cells using the method of Alley et. al. (Cancer Res. (1988) 48:589-601) with cell viability being determined by 3-(4,5-dimethylthiazol-2-yl)-2,5-diphenyltetrazolium bromide (MTT) reduction (Manger et al. (1995) J. AOAC Int., 78:521-527). Cells were seeded in 96-well plates at 6000 cells/well in 180 μL of RPMI 1640 medium with 10% fetal bovine serum. Twenty-four hours later, the test chemical was dissolved in DMSO, diluted into medium without fetal bovine serum and added at 20 μL/well. DMSO was less than 0.5% of the final concentration. After 48 hours, the medium was removed and cell viability determined.

[2] = tested on: neuro-2a mouse neuroblastoma cells; assay: MTT cytotoxicity, neuro-2a cells; type: cell-based; conditions: mouse/rat NG108-15, N2a, 48 hours, read-out: LC50 (the source's name)
Procedure: as §1

[3] = tested on: A-10 cells; assay: cytoskeletal immunofluorescence study in A-10 cells; type: cell-based
Procedure: (§2) Cytoskeletal assays were carried out on 1. […] Therefore, it was hypothesized that 1 might cause mitotic abnormalities by a non-tubulin dependent mechanism, and flow cytometry studies were initiated to look at the effect of the compound on cell cycle distribution (FIG. 2).

[4] = tested on: HeLa cervical cancer cells; assay: immunofluorescence study in HeLa cells; type: cell-based
Procedure: as §2

[5] = tested on: MDA-MB-435 cells; assay: cell cycle analysis by flow cytometry; type: cell-based; conditions: 24 hours
Procedure: For cell cycle analysis, MDA-MB-435 cells were treated for 24 hours with vehicle or sample. The cells were harvested and stained with Krishan's reagent. This suspension was analyzed using a Becton Dickinson FACScan flow cytometer, and the data were plotted as propidium iodide intensity versus the number of events. Quality control samples were run with each assay to ensure instrument linearity and resolution.

[6] = tested on: histone deacetylase (HDAC); assay: HDAC inhibition; type: biochemical
[7] = tested on: National Cancer Institute NCI60 tumor cell lines; assay: NCI60 tumor cell line panel; type: cell-based, human
Procedure: (§3) Coibamide A was tested against the National Cancer Institute NCI60 tumor cell lines (dtp.nci.nih.gov/branches/btb/ivclsp.html; Shoemaker, R. H. (2006) Nat. Rev. Cancer, 6:813-823), which comprises 60 human cancer cell lines including leukemias, melanomas, ovarian, renal, prostate, breast, colon, lung and central nervous system (CNS) cancers (the data from two screens are provided in FIGS. 3A and 3B). […] Growth inhibition of 50% (GI50) is the drug concentration resulting in a 50% reduction in the net protein increase in control cells during the drug incubation. Similarly, total growth inhibition (TGI) is the drug concentration resulting in zero net protein increase in control cells, and the lethal concentration of 50% (LC50) is the drug concentration resulting in a 50% reduction in the measured protein at the end of the drug treatment as compared to that at the beginning, (a net loss of cells following treatment). […] Coibamide A produced mean cytostatic (GI50 and TGI with range) and cytotoxic (LC50 and range) parameters as follows: log GI50, −8.04 (2.96); log TGI, −5.85 (3.43); log LC50, −5.11 (2.66). These log mean values of <−4 with log range values of >2 indicate both potency and histological selectivity (FIG. 4).

[8] = tested on: SR (leukemia); assay: NCI60 screen, SR; type: cell-based, human
Procedure: as §3

[9] = tested on: HOP-92 (NSCLC); assay: NCI60 screen, HOP-92; type: cell-based, human
Procedure: as §3

[10] = tested on: COLO 205 (colon cancer); assay: NCI60 screen, COLO 205; type: cell-based, human
Procedure: as §3

[11] = tested on: HCC-2998 (colon cancer); assay: NCI60 screen, HCC-2998; type: cell-based, human
Procedure: as §3

[12] = tested on: HT29 (colon cancer); assay: NCI60 screen, HT29; type: cell-based, human
Procedure: as §3

[13] = tested on: SF-295 (CNS cancer); assay: NCI60 screen, SF-295; type: cell-based, human; conditions: first screen
Procedure: as §3

[14] = tested on: SF-539 (CNS cancer); assay: NCI60 screen, SF-539; type: cell-based, human
Procedure: as §3

[15] = tested on: LOX IMVI (melanoma); assay: NCI60 screen, LOX IMVI; type: cell-based, human
Procedure: as §3

[16] = tested on: SK-MEL-5 (melanoma); assay: NCI60 screen, SK-MEL-5; type: cell-based, human
Procedure: as §3

[17] = tested on: SK-OV-3 (ovarian cancer); assay: NCI60 screen, SK-OV-3; type: cell-based, human; conditions: first screen
Procedure: as §3

[18] = tested on: MDA-MB-231/ATCC (breast cancer); assay: NCI60 screen, MDA-MB-231/ATCC; type: cell-based, human
Procedure: as §3

[19] = tested on: T-47D (breast cancer); assay: NCI60 screen, T-47D; type: cell-based, human
Procedure: as §3

[20] = tested on: HL60(TB) (leukemia); assay: NCI60 screen, HL60(TB); type: cell-based, human; conditions: second screen
[21] = tested on: SNB-75 (CNS cancer); assay: NCI60 screen, SNB-75; type: cell-based, human; conditions: second screen
Procedure: as §3

[22] = tested on: M-14 (melanoma); assay: NCI60 screen, M-14; type: cell-based, human; conditions: second screen
Procedure: as §3

[23] = tested on: UACC-62; assay: NCI60 screen, UACC-62; type: cell-based, human; conditions: second screen
Procedure: as §3

[24] = tested on: A498 (renal cancer); assay: NCI60 screen, A498; type: cell-based, human; conditions: second screen
Procedure: as §3

[25] = tested on: RXF 393 (renal cancer); assay: NCI60 screen, RXF 393; type: cell-based, human; conditions: second screen
Procedure: as §3

[26] = tested on: MDA-MB-435 (breast cancer); assay: NCI60 screen, MDA-MB-435; type: cell-based, human; conditions: second screen
Procedure: as §3

[27] = mean over the panel, log range in brackets, preliminary

SMILES: CCC(C)C1C(=O)NC(C)C(=O)N(C)C(CC(C)C)C(=O)NC(Cc2ccc(OC)cc2)C(=O)N(C)C(C)C(=O)OC(C)C(N(C)C(=O)C(CC(C)C)N(C)C(=O)C(COC)N(C)C(=O)C(OC(=O)C(C(C)C)N(C)C)C(C)C)C(=O)N(C)C(COC)C(=O)N1C (centres unmarked) [Coibamide A] (ξNMe2Val-[Hiv][NMeS](Me)[NMeL][NMeT][NMeS](Me)[NMeI]A[NMeL]Y(Me)[NMeA]; ester 4-C; configuration not given here)
- CC50 [1]: > 0.03 µg/mL and > 23 nM
- CC50 [2]: > 0.03 µg/mL and > 23 nM
- microtubule changes [3]: did not show any of the expected microtubule changes
- mitotic spindles [3]: some monopolar mitotic spindles were observed
- mitotic structures ([4]; 100 nM concentration): two aberrant mitotic structures were observed
- phenotypic effects on microtubules or nuclear structures ([4]; immunofluorescence): did not show any expected phenotypic effects on microtubules or on nuclear structures
- cells in G2/M [5]: no change in G2/M
- mitotic accumulation [5]: does not cause any significant mitotic accumulation
- cells in G1 phase ([5]; dose dependent): large increase in the number of cells in G1 phase
- cells in S phase ([5]; dose dependent): reduction of cells in S phase
- HDAC inhibitor activity [6]: no significant activity
- activity by cancer type from the mean graph for GI50 values [7]: consistently active against leukemias, CNS, colon, and breast cancer cells
- GI50 values ([7]; 53 of the 55 cancer cell lines screened): Nanomolar or better
- CC50 ([7]; Homo sapiens, mean over the panel, log range in brackets, preliminary, read-out: mean log LC50 (range) (converted)): 7760 nM
- mean log GI50 (range) [7, 27]: −8.04 (2.96)
- mean log TGI (range) [7, 27]: −5.85 (3.43)
- TGI ([8]; first screen): 16.6 nM
- TGI ([8]; second screen): 87.0 nM
- TGI ([9]; first screen): 25.4 nM
- TGI ([9]; second screen): 11.4 nM
- CC50 ([10]; Homo sapiens, COLO 205, NCI60 screen, read-out: LC50 (the source's name)): 35.8 nM
- TGI ([10]; first screen): 4.9 nM
- TGI ([10]; second screen): 15.7 nM
- GI50 ([11]; Homo sapiens, HCC 2998, undefined activity): < 1 nM
- TGI ([11]; first screen): 8.3 nM
- TGI ([11]; second screen): 93.7 nM
- LC50 (concentration giving 50% net cell loss) ([12]; Homo sapiens, HT-29, NCI60 screen): 93.3 nM
- GI50 ([12]; Homo sapiens, HT-29, undefined activity): < 1 nM
- TGI ([12]; first screen): 10.4 nM
- TGI ([12]; second screen): 14.6 nM
- TGI [13]: 21.9 nM
- TGI ([14]; first screen): 30.3 nM
- TGI ([14]; second screen): 28.7 nM
- TGI ([15]; first screen): 6.6 nM
- TGI ([15]; second screen): 7.4 nM
- GI50 ([16]; Homo sapiens, SK-MEL-5, undefined activity): < 1 nM
- TGI ([16]; first screen): 6.0 nM
- TGI ([16]; second screen): 26.9 nM
- TGI [17]: 9.8 nM
- TGI ([18]; first screen): 25.1 nM
- TGI ([18]; second screen): 2.8 nM
- GI50 ([19]; Homo sapiens, T47D, undefined activity): < 1 nM
- TGI ([19]; first screen): 5.4 nM
- TGI [20]: 7.4 nM
- TGI [21]: 7.6 nM
- TGI [22]: 11.2 nM
- TGI [23]: 80.6 nM
- TGI [24]: 74.4 nM
- TGI [25]: 82.3 nM
- TGI [26]: 100 nM

Reference: patent US8034780B2, “Isolation, purification, and structure elucidation of the antiproliferative compound coibamide A” (priority 2007, dated 2011)
